Source: patent US11884956B2, “Methods for detecting mycobacteria with solvatochromic dye conjugates” (priority 2016, dated 2024)

What was measured:
[1] = tested on: Corynebacterium glutamicum (Cg); experiment: No-wash imaging of Cg by DMN-Tre and 6-FITre; assay type: cell-based
[2] = tested on: Mycobacterium marinum (Mm); experiment: No-wash imaging of M. marinum by DMN-Tre and 6-FITre; assay type: cell-based; details: 100 μM, 6 hours, imaged without washing; FIG. 9A
[3] = tested on: Mycobacterium smegmatis (Msmeg); experiment: No-wash imaging of Msmeg by DMN-Tre and 6-FITre; assay type: cell-based; details: 100 μM, 1 hour, imaged without washing; FIG. 9A
Mtb cells = experiment: Labeling of drug-treated Mtb; assay type: cell-based, Mycobacterium tuberculosis; details: drug cocktail 3 hours before staining; FIGS. 15C and 15D
[4] = tested on: Mtb cells in TB-positive patient sputum samples; experiment: Microscopy analysis of Mtb in sputum samples / Auramine vs DMN-Tre smear test; assay type: cell-based, Mycobacterium tuberculosis; details: for detection of Mtb cells in split sputum samples: DMN-Tre 30 minutes or Auramine O standard kit protocol, FIGS. 17B-D
Msmeg [5] = experiment: Flow cytometry of metabolically labeled Msmeg; assay type: cell-based, Mycobacterium smegmatis
[6] = tested on: Listeria monocytogenes (Lm); experiment: Labeling of non-mycomembrane bearing bacteria (Lm); assay type: cell-based; details: 100 μM, 37° C., 2 h; FIG. 11A
Procedure: (§1) Lm, Bs, Ec, and Sa were grown from single colonies at 37° C. overnight. The bacteria were diluted to an OD600 of 0.4. To 1 mL aliquots of these bacteria, 10 μL of 10 mM DMN-Tre was added to reach a final concentration of 100 μM. The cells were then incubated at 37° C. for 2 h. Aliquots were taken and the cells were imaged under a coverslip. As controls, cells from the same OD600=0.4 culture, without the addition of DMN-Tre, were also imaged.

M. smegmatis = experiment: Trehalose competition of DMN-Tre labeling in M. smegmatis; assay type: cell-based, Mycobacterium smegmatis; details: 1 hour, FIG. 12D
Procedure: Then, the bacteria were divided into 100 μL aliquots. To these aliquots was added 1 μL of 10 mM DMN-Tre and 1 μL of 0, 10 or 100 mM trehalose in water.

Cg = experiment: No-wash labeling of Cg over time; assay type: cell-based, Corynebacterium glutamicum; details: FIG. 10
Procedure: (§2) Msmeg or Cg cells were grown to an OD600 of 0.5 from a single colony as above. To 200 μL of culture was added 2 μL of 10 mM DMN-Tre in H2O. Aliquots were taken from this culture at the indicated time points, immediately placed under a coverslip, and imaged.

Bacillus subtilis (Bs) = experiment: Labeling of non-mycomembrane bearing bacteria (Bs); assay type: cell-based; details: 100 μM, 37° C., 2 h; FIG. 11A
Procedure: as §1

Msmeg deficient in Ag85A = experiment: DMN-Tre labeling of Msmeg deficient in Ag85A; assay type: cell-based, Mycobacterium smegmatis; details: FIG. 12F
[7] = tested on: Staphylococcus aureus (Sa); experiment: Labeling of non-mycomembrane bearing bacteria (Sa); assay type: cell-based; details: 100 μM, 37° C., 2 h; FIG. 11A
Procedure: as §1

Stability of DMN-Tre = assay type: physicochemical; details: bench or shipping containers at room temperature; aqueous solution at 37° C.
Msmeg expressing mCherry = experiment: Selective labeling of Msmeg in the presence of other bacterial species; assay type: cell-based, Mycobacterium smegmatis; details: 1:10 mycobacteria/other bacteria (Bs, Ec, Lm, Sa), Hoechst dye, one hour, no wash; FIG. 11B
Procedure: Bacteria (Lm, Bs, Ec, and Sa) were grown overnight with shaking in media as noted above. The bacteria were diluted to OD600=0.5, then 500 μL of each culture were mixed together to create 2 mL of mixed bacteria. One mL of Msmeg expressing mCherry was grown from a single colony overnight to OD600 of 0.5. Both cultures were pelleted by centrifugation (3 min, 3,300×g) and resuspended in an identical volume of LB medium. To 540 μL of mix, 60 μL of Msmeg was added. Lastly, this final mixture of bacteria containing Msmeg and the four other non-mycomembrane bearing bacterial species was split into two 300 μL aliquots. To each group, 0.3 μL of 2 mg/mL Hoechst DNA stain (Thermo Fisher Scientific, 62249) was added to stain all the bacteria. To one of the two aliquots, 3 μL of 10 mM DMN-Tre were added, while no DMN-Tre was added to the other portion. The two aliquots were incubated with shaking at 37° C. for 1 h before a sample was taken out and imaged without washing.

Escherichia coli (Ec) = experiment: Labeling of non-mycomembrane bearing bacteria (Ec); assay type: cell-based; details: 100 μM, 37° C., 2 h; FIG. 11A
Procedure: as §1

Mtb (H37Rv) = experiment: Axenic MTB culture time-course experiment; assay type: cell-based, Mycobacterium tuberculosis
Msmeg [8] = experiment: No-wash labeling of Msmeg over time; assay type: cell-based, Mycobacterium smegmatis; details: FIG. 10
Procedure: as §2

heat-killed Msmeg cells = experiment: DMN-Tre labeling of heat-killed Msmeg; details: FIGS. 13A and 13B
[9] = Absorbance and fluorescence measurements of DMN-Tre; assay type: physicochemical
Procedure: One μL of 10 mM DMN-Tre in H2O was added to 1 mL of mixtures of dioxane and water at different ratios. Absorbance spectra were recorded on a Varian Cary 50 UV-Visible spectrophotometer. Fluorescence spectra were recorded on a Photon Technology International Quanta Master 4 L-format scanning spectrofluorometer equipped with an LPS-220B 75-W xenon lamp and power supply, an A-1010B lamp housing with an integrated igniter, a switchable 814 photon counting/analog photomultiplier detection unit, and an MD5020 motor driver. Measurements were made in 1 cm×0.4 cm quartz cuvettes with a total sample volume of 1 mL.

[10] = tested on: Msmeg trehalose transporter mutants; assay type: cell-based, Mycobacterium smegmatis; details: panel of trehalose transporter mutants
ΔkatG mutant of Msmeg = assay type: cell-based, Mycobacterium smegmatis; details: FIG. 14C
wild-type Msmeg = experiment: DMN-Tre labeling after isoniazid treatment, wild-type; assay type: cell-based, Mycobacterium smegmatis; details: FIG. 14C
[11] = 100 μM, 2 hours, imaged without washing, FIG. 9A
[12] = 100 μM, exponential growth phase, first time point

## O=C(O)c1cc(NC(=S)NC[C@H]2O[C@H](O[C@H]3O[C@H](CO)[C@@H](O)[C@H](O)[C@H]3O)[C@H](O)[C@@H](O)[C@@H]2O)ccc1-c1c2ccc(=O)cc-2oc2cc(O)ccc12 [6-FITre, 6-fluorescein-trehalose, reference compound]
[1]; [11]
  background fluorescence of free probe in surrounding solution: obscured by fluorescence of the probe in the surrounding solution
[2]
  background fluorescence of free probe in surrounding solution: obscured by fluorescence of the probe in the surrounding solution
[3]
  background fluorescence of free probe in surrounding solution: obscured by fluorescence of the probe in the surrounding solution

## CN(C)c1ccc(C(=N)c2ccc(N(C)C)cc2)cc1.Cl [Auramine O, reference compound]
Mtb cells
  labeling after prior drug cocktail treatment: unaffected
[4]
  detection of Mtb cells in split sputum samples: detected

## COC1OC(CN2C(=O)c3cccc4c(N(C)C)ccc(c34)C2=O)C(O)C(O)C1O (stereo not drawn) [DMN-Glc, DMN-glucose]
Msmeg [5]; FIG. 12C
  labeling of Msmeg: did not label Msmeg

## CN(C)c1ccc2c3c(cccc13)C(=O)N(C[C@H]1O[C@H](O[C@H]3O[C@H](CO)[C@@H](O)[C@H](O)[C@H]3O)[C@H](O)[C@@H](O)[C@@H]1O)C2=O [DMN-Tre, 4-N,N-dimethylamino-1,8-naphthalimide-conjugated trehalose]
[6]
  fluorescence labeling without washing: none of the non-mycobacterial strains show any detectable fluorescence labeling
M. smegmatis
  DMN-Tre labeling in the presence of excess trehalose: reduced
Cg; [12]
  time point at which labeling was already visible: ≤ 3 min
Cg; earliest time point
  labeling pattern at earliest time point: even cell surface labeling
[1]; [11]
  background fluorescence of free probe in surrounding solution: no discernible background fluorescence
  fluorescence labeling, no-wash imaging: Bright fluorescence labeling
[1]; same experiment as the non-mycobacterial strains, FIG. 11A
  fluorescence labeling in the selectivity experiment: labeled brightly
Bacillus subtilis (Bs)
  fluorescence labeling without washing: none of the non-mycobacterial strains show any detectable fluorescence labeling
Msmeg deficient in Ag85A
  DMN-Tre labeling versus wild-type: reduced labeling compared to wild-type
[7]
  fluorescence labeling without washing: none of the non-mycobacterial strains show any detectable fluorescence labeling
[2]
  background fluorescence of free probe in surrounding solution: no discernible background fluorescence
  fluorescence labeling, no-wash imaging: Bright fluorescence labeling
Mtb cells
  labeling after prior drug cocktail treatment: inhibited
Stability of DMN-Tre
  stability: very stable on the bench or in shipping containers for weeks at room temperature, and even in aqueous solution at 37 °C
Msmeg [5]; 100 μM DMN-Tre, 1 h, excited at wavelengths closer to 400 nm (405 nm vs 488 nm excitation), FIG. 9B
  fluorescence signal of labeled cells by filter set: higher fluorescence signal over control samples
Msmeg [5]; flow cytometry, FIG. 12A
  time to significant fluorescence over background: ≤ 20 min
Msmeg [5]; within 30 minutes, flow cytometry, FIG. 12B
  cells labeled: > 70%
[4]
  time to detection of mycobacteria in TB patient sputum samples: under an hour
  detection of Mtb cells in split sputum samples: detected
[4]; 16 treatment-naïve TB-positive patients, 2-hour incubation, FIGS. 17A and D
  fluorescent Mtb cells in sputum samples: readily visible in all samples
[4]; visibly stained cells over 8 fields of view per sample, 16 sputum samples, FIG. 17C
  Mtb cells detected in sputum compared with Auramine O: performed similarly to Auramine O
[3]
  background fluorescence of free probe in surrounding solution: no discernible background fluorescence
  fluorescence labeling, no-wash imaging: Bright fluorescence labeling
Msmeg expressing mCherry
  labeling in mixed bacterial culture: Bright, specific, DMN-Tre labeling of only Msmeg cells
Escherichia coli (Ec)
  fluorescence labeling without washing: none of the non-mycobacterial strains show any detectable fluorescence labeling
Mtb (H37Rv); FIG. 15A
  labeling of liquid cultures: visibly labeled
Mtb (H37Rv); liquid cultures, within 30 minutes, FIG. 15B
  cells labeled: > 65%
Mtb (H37Rv); overnight (˜16 h), FIG. 15B
  labeling over time: continued to intensify overnight
Msmeg [8]; [12]
  time point at which labeling was already visible: ≤ 5 min
Msmeg [8]
  time by which cells were uniformly labeled: ≤ 1 h
Msmeg [8]; earliest time point
  labeling pattern at earliest time point: fluorescence only at the polar regions
heat-killed Msmeg cells
  labeling after heat killing: abrogated
[9]
  enhancement in fluorescence intensity when dissolved in organic solvent versus water: ~700 fold
[10]
  DMN-Tre incorporation versus wild-type: comparable to wild-type

## NNC(=O)c1ccncc1 [isoniazid]
ΔkatG mutant of Msmeg
  effect of isoniazid treatment on DMN-Tre labeling: unaffected
wild-type Msmeg
  effect of isoniazid treatment on DMN-Tre labeling: not wild-type Msmeg, was unaffected
